target: DGKζ (Homo sapiens (Human), UniProt Q13574); test: Assay 1 or 2: In Vitro DGK Inhibition Assays (DGKζ LIPGLO, extruded liposome); assay type: biochemical; settings: extruded liposome substrate, 150 μM ATP
Sequence (Q13574 other isoform, or with tags, fused parts or gaps): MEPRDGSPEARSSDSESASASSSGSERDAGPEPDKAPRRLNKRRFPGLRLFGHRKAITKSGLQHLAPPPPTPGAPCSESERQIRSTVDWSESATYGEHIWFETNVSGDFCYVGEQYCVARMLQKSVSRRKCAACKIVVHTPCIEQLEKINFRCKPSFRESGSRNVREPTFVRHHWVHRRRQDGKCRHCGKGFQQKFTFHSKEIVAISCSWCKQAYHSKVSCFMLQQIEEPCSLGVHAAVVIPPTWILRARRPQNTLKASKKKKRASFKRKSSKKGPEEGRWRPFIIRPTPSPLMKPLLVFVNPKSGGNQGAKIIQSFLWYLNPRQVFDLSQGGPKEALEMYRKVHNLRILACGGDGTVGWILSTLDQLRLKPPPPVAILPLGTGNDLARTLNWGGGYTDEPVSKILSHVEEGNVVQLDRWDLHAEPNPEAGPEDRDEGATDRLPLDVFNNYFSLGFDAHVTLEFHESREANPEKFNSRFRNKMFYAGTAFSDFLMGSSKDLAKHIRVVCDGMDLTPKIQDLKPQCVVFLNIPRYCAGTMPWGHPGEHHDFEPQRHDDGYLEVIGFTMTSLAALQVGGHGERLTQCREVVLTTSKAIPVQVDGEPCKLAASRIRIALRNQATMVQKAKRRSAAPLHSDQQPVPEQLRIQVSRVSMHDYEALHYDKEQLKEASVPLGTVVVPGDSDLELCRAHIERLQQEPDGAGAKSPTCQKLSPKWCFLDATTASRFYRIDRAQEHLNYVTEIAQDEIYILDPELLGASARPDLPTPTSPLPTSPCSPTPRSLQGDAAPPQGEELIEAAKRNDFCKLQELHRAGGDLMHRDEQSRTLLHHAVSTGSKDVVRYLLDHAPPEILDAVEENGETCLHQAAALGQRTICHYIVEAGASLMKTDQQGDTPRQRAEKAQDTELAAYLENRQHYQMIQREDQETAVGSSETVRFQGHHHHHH

| SMILES | IC50 [nM] |
| --- | --- |
| CC[C@H]1CN(C(C(=O)N2CCOCC2)c2ccc(C(F)(F)F)cc2)[C@H](CC)CN1c1nc(=O)n(C)c2ccc(C#N)nc12 (single isomer, unassigned) [Example 53] | 3290 |
| CC[C@H]1CN(C(C(=O)N2CCOCC2)c2ccc(C(F)(F)F)cc2)[C@H](CC)CN1c1nc(=O)n(C)c2ccc(C#N)nc12 (single isomer, unassigned) [Example 54] | 580 |
| CC[C@H]1CN(C(C(=O)NCCOC)c2ccc(C(F)(F)F)cc2)[C@H](CC)CN1c1nc(=O)n(C)c2ccc(C#N)nc12 (single isomer, unassigned) [Example 56] | 100 |

— patent US12454531B2, “Substituted piperazine derivatives useful as T cell activators” (BRISTOL-MYERS SQUIBB COMPANY, priority 2019, dated 2025)
